“And” between values parts separate entries of the source, which are not always exact repeats. Identical values can stand only once. Like-named read-outs stand apart in the source and are kept apart here.
Experiments:
[1] = test system: peptide-class II MHC complex; experiment: inhibition of peptide-class II MHC complex formation, cis versus trans; assay type: binding
[2] = target: DR1-CLIP complex (Homo sapiens, UniProt P01903+P01911, A100R/D57E/F55L/F60I/F76Y/I96L/L162R/M171V/P40L/Q125E/R42F/V115G/Y59C); experiment: chemiluminescent ELISA of metal-induced peptide release, DR1-CLIP; assay type: binding; details: for IC50: read-out: IC50 for CLIP release from DR1
[3] = target: DR1-CLIP (fluorescently labeled CLIP bound to HLA-DR1) (Homo sapiens, UniProt P01903+P01911, A100R/D57E/F55L/F60I/F76Y/I96L/L162R/M171V/P40L/Q125E/R42F/V115G/Y59C); experiment: fluorescence polarization screen of peptide release from DR1-CLIP (high-throughput and focused metal screen); assay type: binding; details: for ability to disrupt DR1-CLIP association, focused screen of metal complexes (FIG. 1a): 250 μM, ~20 h, 37° C., pH 5.0; for activity in high-throughput screen (peptide release by fluorescence polarization): 28,000 compounds screened, HLA-DM present, pH 5
Protocol: To find small-molecule modulators of class II MHC-peptide interactions, we used a high-throughput, fluorescence polarization assay to screen 28,000 compounds and natural extracts. Each well of a microplate contained a fluorescently labeled class II-associated invariant chain peptide (CLIP) bound to human leukocyte antigen (HLA)-DR1, a class II MHC protein. In addition, HLA-DM, a peptide exchange catalyst required in vivo for efficient loading, was present. The assay was performed at pH 5 to simulate endosomal pH (Morris P et al. (1994) Nature 368:551-4; Weber D A et al. (1996) Science 274:618-20). Compounds were added to the plates by pin transfer and monitored peptide release by fluorescence polarization. The screen uncovered only two active compounds, cisplatin (1) and carboplatin (2), both platinum(II) complexes.
Fluorescence polarization (FP) based binding assay used for small molecule screening. A FP assay was developed in order to screen small-molecule libraries for chemicals that could modulate peptide binding by class II MHC proteins. The fluorescent DR1-CLIP-AlexaFluor488 (0.1 μM) was used for all FP studies. The concentration of DM used in the screening assay, and when included as a control, was 0.1 μM. Experiments were carried out in a final volume of 40 μl in black, 384-well assay plates (non-binding surface, Costar). The plate was sealed with an aluminum foil seal (Costar), placed in a sealed humidified container, and incubated at 37° C. The FP values for each experimental well were determined using a plate reader (Analyst, LJL Biosystems). A total of 27,937 compounds from several commercial sources were screened using this assay. This assay format was also used to screen several metal complexes and chloride salts as wells as for kinetic studies.
Focused screen of metal complexes using the FP assay. Based on the results of the primary small molecule screen, a focused screen consisting of several metal complexes and chloride salts was performed using the fluorescence polarization assay. […]. These were tested in duplicate at a concentration of 250 μM. For the focused screen, DR1 (100 nM) bound to a Alexa-Fluor 488-labeled CLIP (af-CLIP) peptide was incubated with several metal complexes and salts (250 μM) for ˜20 h (37° C., pH 5.0), and then peptide release was measured by a fluorescence polarization assay. For comparison, the FP of labeled DR1-CLIP incubated with and without excess unlabeled HA peptide and the FP of af-CLIP peptide alone were also measured.

[4] = test system: HA peptide-loaded LG-2 cells presented to influenza-specific T cell hybridoma; experiment: T cell activation assay (IL-2 release); assay type: cell-based; details: 1-100 μM, APCs treated […], IL-2 ELISA (FIG. 4c)
[5] = target: DR1-HA(306-318) complex (Homo sapiens, UniProt P01903+P01911, A100R/D57E/F55L/F60I/F76Y/I96L/L162R/M171V/P40L/Q125E/R42F/V115G/Y59C); experiment: chemiluminescent ELISA of metal-induced peptide release, DR1-HA; assay type: binding; details: read-out: IC50 for HA peptide release from DR1
[6] = target: DR1-HA (Homo sapiens, UniProt P01903+P01911, A100R/D57E/F55L/F60I/F76Y/I96L/L162R/M171V/P40L/Q125E/R42F/V115G/Y59C); experiment: activation of sodium aurothiomalate by hypochlorite, peptide release ELISA; assay type: binding; details: pH 7.4, final compound 10 μM, oxidant 0-10 μM, overnight 37° C.
Protocol: Activation of sodium aurothiomalate (sodium Au(I)-thiomalate, 8) by sodium hypochlorite (NaOCl). Sodium aurothiomalate (8; 300 μM) and a control, thiomalate (D,L-mercaptosuccinic acid, 9), were dissolved in PBS and incubated for 1 h at 20° C. with increasing concentrations of NaOCl. After 1 h, 5 μl of each reaction stock solution was added to DR1-HA-biotin (0.1 μM) in PBS (pH 7.4). The final concentration of compounds 8 and 9 was 10 μM. After incubation of the protein with added compound overnight at 37° C., the amount of biotinylated HA peptide that bound to DR1 was determined by chemiluminescent ELISA.
Activation of sodium aurothiomalate (Au(I)-thiomalate, 8) by sodium hypochlorite (NaOCl). The concentration of sodium hypochlorite (NaOCl) solution was determined prior to each use by measuring the absorbance at 292 nm (ε292=350 M^−1cm^−1). Sodium aurothiomalate (8), 300 μM, was incubated for one hour at 20° C. in the presence of increasing concentrations of NaOCl (0 μM, 100 μM, 125 μM, 150 μM, and 300 μM) in PBS (pH 7.4). As a control, thiomalate (D,L-mercaptosuccinic acid, 9), 300 μM, was also treated with the identical concentrations of NaOCl. After one hour, 5 μL of each reaction stock solution was added to 145 μL of DR1-HA-biotin complex in PBS (pH 7.4). The final protein concentration was 0.1 μM and the final concentration of compounds 8 and 9 was 10 μM. Final concentrations of oxidant were 0, 3.33, 4.17, 5 and 10 μM. Each concentration of oxidant was tested in quadruplicate. After incubating overnight at 37° C., the amount of biotinylated HA peptide that remained bound to DR1 was determined using the chemiluminescent ELISA described above.

[7] = pH 5, overnight 37° C., without DM

N.N.[Cl][Pt+2][Cl] [transplatin]
activity as inhibitor of peptide-class II MHC complex formation [1]: is not

[Cl][Ni][Cl] [NiCl2]
activity in titration of DR1-CLIP complex (FIG. 1b) ([2]; pH 5): inactive
ability to disrupt DR1-CLIP association, focused screen of metal complexes (FIG. 1a) [3]: inactive

[Cl][Pd-2]([Cl])([Cl])[Cl].[K+].[K+] [Compound K2PdCl4, K2PdCl4]
IC50 [2, 7]: 3480 ± 370 nM
ability to disrupt DR1-CLIP association, focused screen of metal complexes (FIG. 1a) [3]: active

N.N.[Cl][Pt][Cl] [cisplatin, cis-diamminedichloroplatinum (II)]
inhibition of T-cell activation by metal-pretreated antigen-presenting cells [4]: blocked
inhibition of T-cell activation by metal-pretreated antigen-presenting cells ([4]; listed as Cisplatin): more potent
activity as inhibitor of peptide-class II MHC complex formation [1]: active
IC50 [2, 7]: 2660 ± 690 nM
IC50 ([2]; pH 7.4): 770 ± 30 nM
activity in high-throughput screen (peptide release by fluorescence polarization) [3]: active
IC50 ([5]; pH 5): ~4000 nM and 5490 nM
IC50 ([5]; pH 7.4): ~1000 nM and 1060 nM

[Au+].[C-]#N.[C-]#N.[K+] [K[Au^I(CN)2]]
ability to disrupt DR1-CLIP association, focused screen of metal complexes (FIG. 1a) [3]: did not release peptide from DR1

O=C(O)CC(S)C(=O)O (racemic) [thiomalate, D,L-mercaptosuccinic acid]
peptide release from DR1-HA after treatment of compound with hypochlorite [6]: does not have an effect
peptide release from DR1-HA after treatment of compound with hypochlorite ([6]; listed as 9): did not

N.N.O=C([O-])C1(C(=O)[O-])CCC1.[Pt+2] [carboplatin, diammine[1,1-cyclobutane-dicarboxylato(2-)-O,O′]—Pt^II]
activity in high-throughput screen (peptide release by fluorescence polarization) [3]: active

O=C([O-])CC([S-])C(=O)[O-].[Au+].[Na+].[Na+] (stereo not drawn) [sodium Au(I)-thiomalate, sodium aurothiomalate]
activity in titration of DR1-CLIP complex (FIG. 1b) ([2]; pH 5): did not release peptide from DR1
activity in titration of DR1-CLIP complex (FIG. 1b) ([2]; pH 5, listed as sodium aurothiomalate): inactive
peptide release from DR1-HA after treatment of compound with hypochlorite [6]: causes peptide release from DR1
peptide release from DR1-HA after treatment of compound with hypochlorite ([6]; listed as 8): caused peptide release
